Results reported in article PMC10217311 (Gels, 2023).
≈ marks a conversion by molar mass, not a printed value.

What was measured:
[1] = for T5%, decomposition temperature, 5% weight loss of the initial mass / T50%, decomposition temperature, 50% weight loss of the initial mass: TG, oxidative conditions
Procedure: The thermal stability of drugs is an essential property necessary to control the formulation method of the finished drug. […] Both the temperature at which decomposition begins (Tonset) and the temperature at which mass loss accelerates to its maximum (Tmax) were identified. […]
XRD, thermal stability (TG), phase transition temperatures (DSC), specific rotation, solubility in water, and lipophilicity were also determined. […]
Thermal stability was assessed using thermogravimetric analyses performed on a Netzsch thermomicrobalance TG 209 F1 Libra. The analysis was conducted under oxidative conditions, with a nitrogen flow (as protective gas) of 10 mL/min, an airflow of 25 mL/min, and a temperature range of 25 to 1000 °C. Samples of roughly 5 mg weight were heated at 10°/min. The onset decomposition temperature was calculated using the intersection of TG curve tangents. The temperatures associated with the quickest sample weight loss were calculated using the first derivative of the TG curve (DTG curve). […]

physchem [2] = experiment: physchem
Procedure: Lipophilicity is essential for predicting the hydrophobicity and partitioning of drugs in biological systems. Therefore, the test was prepared using the shake-flask method.

physchem [3] = experiment: physchem; remark: listed apart in the source
Procedure: The following oils were used in the research: hemp oil, evening primrose oil, and sunflower oil, as well as the following surfactants: Tween 40, Tween 60, Span 80, and Tween 80. […] The study was carried out in screw-cap vials with continuous magnetic stirring at 100 rpm at 25 °C for 48 h. A supersaturated solution was obtained and filtered through a syringe filter with MCE (Mixed Cellulose Ester) membrane (0.45 µm, ⌀ 47 mm). The content of the compound in the solution was determined by HPLC. The HPLC analyses were performed using a Shimadzu (Kyoto, Japan) Nexera-i LC-2040C 3D High Plus liquid chromatograph equipped with a DAD/FLD detector and Kinetex® F5 column 100 Å ([…]; 150 × 4.6 mm; Phenomenex, Torrance, CA, USA) maintained at 35 °C. The mixture of acetonitrile and water 60/40 (v/v) was used as the mobile phase under isocratic conditions, with a flow rate of 0.5 mL/min. The detection wavelength was 210 nm. The collected data were acquired and processed using LabSolutions/LC Solution System. Each measurement was performed in triplicate, and the results were averaged.

[4] = Permeation of the active substance through the skin, Franz diffusion cell; assay type: in vitro ADME, pig; settings: 24 h permeation test; abstract prints human skin
Text: The steady-state flux was estimated from the slope of the linear portion of the plot of cumulative mass in the acceptor phase over time.

Row | Compound | Tonset, the onset temperature of the thermal degradation [1] | T5%, decomposition temperature, 5% weight loss of the initial mass [1] | T50%, decomposition temperature, 50% weight loss of the initial mass [1] | logP (physchem [2]) | solubility at 48 h (physchem [3]; Span 80, 25 °C, aqueous with cosolvent or surfactant or cyclodextrin, thermodynamic from solid) | solubility at 48 h (physchem [3]; Tween 40) | solubility at 48 h (physchem [3]; Tween 60, 25 °C, aqueous with cosolvent or surfactant or cyclodextrin, thermodynamic from solid) | solubility at 48 h (physchem [3]; Tween 80) | solubility at 48 h (physchem [3]; evening primrose oil, 25 °C, oil or lipid, thermodynamic from solid) | solubility at 48 h (physchem [3]; hemp oil) | Solubility (physchem [3]; in Sunflower oil, 25 °C, mean ± S.D., n = 3) | Average cumulative mass of IBU after 24 h from emulsion-based gel, times higher than commercial products [4]
1 | CC(C)Cc1ccc(C(C)C(=O)O)cc1 (stereo not drawn) [IBU, ibuprofen] | 193.2 °C | 162.1 °C | 210.3 °C | 2.758 ± 0.014 | 56.89 ± 0.15 mg/mL (≈ 276 mM) | 466.1 ± 1.71 mg/mL (≈ 2260 mM) | 519.6 ± 0.69 mg/mL (≈ 2520 mM) | 411 ± 4.18 mg/mL (≈ 1990 mM) | 76.74 ± 0.35 mg/mL (≈ 372 mM) | 95.44 ± 0.03 mg/mL (≈ 463 mM) | 65.10 ± 1.92 mg/mL (≈ 316 mM) | 1.6–4.0 times
2 | CC(C)Cc1ccc(C(C)C(=O)[O-])cc1.[Na+] (stereo not drawn) [IBUNa, sodium ibuprofenate] | 265.4 °C | 285.4 °C | 445.1 °C |  |  |  |  |  |  |  |  | 
